Measured values reported in patent US11179372B2, “Isoxazoline solution containing vitamin E for use with sanitized drinking water” (Intervet Inc., priority 2015, dated 2021).

Tests used:
[1] = Effect of drinking water quality on degradation of Fluralaner; format: physicochemical
Method: To assess what caused the degradation of Fluralaner in dilution in drinking water, the impact of different types and qualities of drinking water was tested. This was done by incubation of samples containing 1 μg/g of Fluralaner, in water that contained different ions at increased concentrations from average normal conditions. Samples were mixed and incubated for 7 days, either at 2-8° C., or at 40° C./75% relative humidity (RH). Fluralaner contents were measured before and after incubations. Isoxazolines such as Fluralaner can be detected and quantified by fast liquid chromatography methods, using standard equipment and procedures, such as UHPLC. Standard liquids for washing and as carrier are e.g.: LC grade Acetonitrile, Methanol, Formic acid, and MiliQ™ water can be prepared in house. Fluralaner is characterised based on its UV spectrum and retention profile, and quantified in reference to dilutions of standards. LoQ=Limit of Quantitation, the lowest concentration at which the analyte can reliably be detected. For Fluralaner by UHPLC the LoQ is 100 ng/ml.

[2] = Prevention of degradation by oxidizing sanitizer (hypochlorite) in medicated drinking water; format: physicochemical; settings: Conc. Fluralaner 1 μg/ml
Method: The Fluralaner level was determined using UHPLC. The alpha-tocopherol used was alpha-tocopherol EP (Fluka).
To prepare the test samples, the required amounts of Transcutol and Tween were measured, combined in a beaker at room temperature, and mixed magnetically. Next, when no protector was added, the required amount of Fluralaner was weighed, added, and mixed until complete dissolution, which usually required about 10 minutes, at 70% speed. […] The complete dissolution was verified visually. Next the density of the resulting solution was checked with a Densimeter, at 20° C.
To test the capacity of the different protectors to prevent degradation of Fluralaner in medicated drinking water by an oxidising sanitizer, samples of the pharmaceutical composition as prepared above were diluted to different concentrations, and incubated with different amounts of hypochlorite. Concentrations of Fluralaner in medicated drinking water used were: 1, 5, and 10 μg/ml.
The hypochlorite used was from a 13% sodium hypochlorite solution (Acros Organics), which was prepared into samples with a concentration of hypochlorite of: 0, 0.5, 2, 5, or 10 ppm, wherein 1 ppm equals 20 μM. Samples without hypochlorite served as positive controls. While the dilutions of hypochlorite were made in purified water, one additional sample at 5 ppm hypochlorite was prepared in standard tap water (Angers, France). Control samples were tested at day zero, all others were tested after an incubation for 7 days at 40° C./75% RH.
The concentration of protector in the test sample was dependent of the dilution factor of the concentrated Fluralaner composition applied: 1:10,000, 1:2000, or 1:1000, respectively.

[3] = 1 μg/g Fluralaner in Al^3+ water at 1 mg/l
[4] = 1 μg/g Fluralaner in ClO^- water at 0.5 ppm
[5] = 1 μg/g Fluralaner in ClO^- water at 5 ppm
[6] = 1 μg/g Fluralaner in ClO^- water at 50 ppm
[7] = 1 μg/g Fluralaner in ClO^- water at 150 ppm
[8] = 1 μg/g Fluralaner in ClO^- water at 250 ppm
[9] = 1 μg/g Fluralaner in Cl^- water at 300 mg/l
[10] = 1 μg/g Fluralaner in Cu^2+ water at 10 mg/l
[11] = 1 μg/g Fluralaner in Fe^3+ water at 1 mg/l
[12] = 1 μg/g Fluralaner in Hard water/high pH (500 mg CaCl2•2H2O/l; pH 8.1)
[13] = 1 μg/g Fluralaner in K^+ water at 300 mg/l
[14] = 1 μg/g Fluralaner in NO3^- water at 100 mg/l
[15] = 1 μg/g Fluralaner in Na^+ water at 300 mg/l
[16] = 1 μg/g Fluralaner in PO4^- water at 100 mg/l
[17] = 1 μg/g Fluralaner in Purified water
[18] = 1 μg/g Fluralaner in Soft water/low pH (30 mg CaCl2•2H2O/l; pH 6.2)
[19] = 1 μg/g Fluralaner in Water at pH = 4
[20] = 1 μg/g Fluralaner in Water at pH = 10
[21] = hypochlorite 0 ppm, T = 7 d at 40° C./75% RH
[22] = hypochlorite 0.5 ppm, T = 7 d at 40° C./75% RH

## Cc1cc(C2=NOC(c3cc(Cl)cc(Cl)c3)(C(F)(F)F)C2)ccc1C(=O)NCC(=O)NCC(F)(F)F (stereo not drawn) [Fluralaner]
[1]; [3]
  Fluralaner content after 7 days at 2-8° C.: 0.99 µg/g
  Fluralaner content after 7 days at 40° C./75% RH: 1.01 µg/g
[1]; [4]
  Fluralaner content after 7 days at 2-8° C.: 0.99 µg/g
  Fluralaner content after 7 days at 40° C./75% RH: 0.82 µg/g
[1]; [5]
  Fluralaner content after 7 days at 2-8° C.: <LOQ
  Fluralaner content after 7 days at 40° C./75% RH: <LOQ
[1]; [6]
  Fluralaner content after 7 days at 2-8° C.: <LOQ
  Fluralaner content after 7 days at 40° C./75% RH: <LOQ
[1]; [7]
  Fluralaner content after 7 days at 2-8° C.: <LOQ
  Fluralaner content after 7 days at 40° C./75% RH: <LOQ
[1]; [8]
  Fluralaner content after 7 days at 2-8° C.: Not detected
  Fluralaner content after 7 days at 40° C./75% RH: Not detected
[1]; [9]
  Fluralaner content after 7 days at 2-8° C.: 0.97 µg/g
  Fluralaner content after 7 days at 40° C./75% RH: 0.98 µg/g
[1]; [10]
  Fluralaner content after 7 days at 2-8° C.: 0.90 µg/g
  Fluralaner content after 7 days at 40° C./75% RH: 0.78 µg/g
[1]; [11]
  Fluralaner content after 7 days at 2-8° C.: 0.91 µg/g
  Fluralaner content after 7 days at 40° C./75% RH: 0.89 µg/g
[1]; [12]
  Fluralaner content after 7 days at 2-8° C.: 0.92 µg/g
  Fluralaner content after 7 days at 40° C./75% RH: 0.96 µg/g
[1]; [13]
  Fluralaner content after 7 days at 2-8° C.: 0.90 µg/g
  Fluralaner content after 7 days at 40° C./75% RH: 0.80 µg/g
[1]; [14]
  Fluralaner content after 7 days at 2-8° C.: 0.92 µg/g
  Fluralaner content after 7 days at 40° C./75% RH: 0.93 µg/g
[1]; [15]
  Fluralaner content after 7 days at 2-8° C.: 0.85 µg/g
  Fluralaner content after 7 days at 40° C./75% RH: 0.84 µg/g
[1]; [16]
  Fluralaner content after 7 days at 2-8° C.: 1.14 µg/g
  Fluralaner content after 7 days at 40° C./75% RH: 1.15 µg/g
[1]; [17]
  Fluralaner content after 7 days at 2-8° C.: 0.90 µg/g
  Fluralaner content after 7 days at 40° C./75% RH: 0.92 µg/g
[1]; [18]
  Fluralaner content after 7 days at 2-8° C.: 0.88 µg/g
  Fluralaner content after 7 days at 40° C./75% RH: 0.89 µg/g
[1]; [19]
  Fluralaner content after 7 days at 2-8° C.: 1.23 µg/g
  Fluralaner content after 7 days at 40° C./75% RH: 1.26 µg/g
[1]; [20]
  Fluralaner content after 7 days at 2-8° C.: 0.78 µg/g
  Fluralaner content after 7 days at 40° C./75% RH: 0.79 µg/g
[2]; hypochlorite 0 ppm, T = 0
  Fluralaner content in medicated drinking water; alpha-tocopherol as protector: 0.91 µg/mL
  Fluralaner content in medicated drinking water; no protector: 0.93 µg/mL
[2]; [21]
  Fluralaner content in medicated drinking water; alpha-tocopherol as protector: 0.89 µg/mL
  Fluralaner content in medicated drinking water; no protector: 0.92 µg/mL
[2]; [22]
  Fluralaner content in medicated drinking water; alpha-tocopherol as protector: 0.91 µg/mL
  Fluralaner content in medicated drinking water; no protector: 0.91 µg/mL
